Reference: US12161641B2, “Treatments and prevention of opioid neonatal abstinence syndrome” (Ohio State Innovation Foundation, priority 2016, dated 2024)

Assays:
[1] = adult mice; 10 minutes after injection; cited from earlier work
[2] = Weight gain during 6 day morphine dosing schedule; assay type: in vivo, mice; details: increasing concomitant doses with morphine; 6 day dosing schedule
Procedure: Total jumps were counted over a period of 15 minutes starting immediately after the injection of naloxone to induce withdrawal. Two concentration ramping procedure were used for the morphine injections with commensurate ramping of 6β-naltrexol. Data are plotted using the lower of the two drug concentrations. Asterisks indicate a significant difference compared to morphine treated animals with no 6β-naltrexol; *p<0.05; **p<0.01. […] Bidirectional arrows indicate the time bin for each 6β-naltrexol dose where an equal number of jumps occur prior to and after that time bin. Note that this timepoint increases with increasing 6β-naltrexol. Asterisk indicates a significant effect of the 1/3000, 1/1000, and 1/200 doses of 6β-naltrexol compared to morphine-alone in the first three time bins. […] The mass of each mouse was determined before and after the 6 day morphine dosing schedule and the percent weight change was determined. Asterisk indicates significant difference from animals that received morphine but no (“0”) 6β-naltrexol (p<0.05). In FIG. 3A, the number in parentheses indicates the number of animals tested at each drug concentration. […]
Animals were injected with morphine alone or morphine mixed with increasing amounts of 6β-naltrexol. […] Withdrawal jumping was videotaped and jumps were scored in a 15 minute interval. […]

[3] = Cumulative injections of 6β-naltrexol: tissue levels, 1 versus 4 injections; assay type: in vivo, mice
Procedure: While 6β-naltrexol is relatively excluded from adult brain, it might accumulate slowly upon multiple dosing because of slow exit from the brain. Therefore, experiments were conducted to determine whether 6β-naltrexol accumulates in tissues over time after chronic delivery, and especially through retention in adult brain. After 4 injections of 6β-naltrexol over a 24 hr period (every 6 hrs), 6β-naltrexol levels were measured in fetal and maternal tissues 4 hrs after the last dose, and accumulation assessed in comparison to a single injection with a 4 hr survival. […] However, this was not significant (p>0.2). Also, 6β-naltrexol trended towards greater accumulation in liver than brain (p=0.084 for comparison of adult liver vs adult brain after 4 injections). Likewise, 6β-naltrexol trended towards greater accumulation in embryos than adults (p=0.063 for comparison of fetal vs adult brain after 4 injections).

[4] = Time-course of drug levels in adult and embryonic mouse plasma, brain and liver after a single subcutaneous injection (LC-MS/MS); details: for 6β-naltrexol level, Embryo Brain / 6β-naltrexol level, Embryo Liver: dam 10 mg/kg subcutaneously
[5] = 20 min survival, 10 mg/kg subcutaneously
[6] = 45 min survival, 10 mg/kg subcutaneously
[7] = 2 hrs survival, 10 mg/kg subcutaneously
[8] = 4 hrs survival, 10 mg/kg subcutaneously
[9] = non-compartmental, 0 to 240 min, 10 mg/kg subcutaneously

## Oc1ccc2c3c1O[C@H]1[C@H](O)CC[C@@]4(O)[C@@H](C2)N(CC2CC2)CC[C@]314 [6β-naltrexol]
[1]
  brain levels lower than plasma levels: ~10 fold
[2]
  effect on inhibition of weight gain by morphine: alleviated
[3]; 4 injections over 24 hr vs single injection, 4 hr survival, not significant (p>0.2)
  increase of 6β-naltrexol after cumulative injections, average for all tissues: ~1.5 fold
[3]; adult brain, 1 injection of 10 mg/kg, 4 hr survival
  6β-naltrexol level, Adult Brain, 1 injection: 110
[3]; adult brain, 4 injections of 10 mg/kg in 24 hrs, 4 hr survival after last dose
  6β-naltrexol level, Adult Brain, 4 injections in 24 hrs: 160
[3]; adult liver, 1 injection of 10 mg/kg, 4 hr survival
  6β-naltrexol level, Adult Liver, 1 injection: 280
[3]; adult liver, 4 injections of 10 mg/kg in 24 hrs, 4 hr survival after last dose
  6β-naltrexol level, Adult Liver, 4 injections in 24 hrs: 360
[3]; embryo brain, 1 injection of 10 mg/kg, 4 hr survival
  6β-naltrexol level, Embryo Brain, 1 injection: 210
[3]; embryo brain, 4 injections of 10 mg/kg in 24 hrs, 4 hr survival after last dose
  6β-naltrexol level, Embryo Brain, 4 injections in 24 hrs: 290
[3]; embryo liver, 1 injection of 10 mg/kg, 4 hr survival
  6β-naltrexol level, Embryo Liver, 1 injection: 250
[3]; embryo liver, 4 injections of 10 mg/kg in 24 hrs, 4 hr survival after last dose
  6β-naltrexol level, Embryo Liver, 4 injections in 24 hrs: 500
[3]; plasma, 1 injection of 10 mg/kg, 4 hr survival
  6β-naltrexol level, Plasma, 1 injection: 40
[3]; plasma, 4 injections of 10 mg/kg in 24 hrs, 4 hr survival after last dose
  6β-naltrexol level, Plasma, 4 injections in 24 hrs: 60
[4]; 20 min after injection
  fetal brain KP ratio: not significantly different from unity
[4]; 20 min survival
  adult brain KP ratio (brain:plasma): 0.13
  6β-naltrexol level, Embryo Brain: 1350 ng/g
  6β-naltrexol level, Embryo Liver: 2970 ng/g
[4]; 45 min after drug injection
  fetal brain:maternal plasma KP ratio: 2.7
[4]; 45 minutes survival
  adult brain KP ratio (brain:plasma): 0.34
[4]; 120 min after injection
  fetal brain:maternal plasma KP ratio: 15.7
[4]; AUC's integrated over 4 hrs
  brain KP ratio based on AUC's (adult): 0.58
[4]; AUC-based
  KP ratio based on AUC's, adult liver: 2.6
  KP ratio based on AUC's, fetal liver: 4.3
  fetal brain KP ratio based on non-compartmental AUC's: 3.6
[4]; [5]
  6β-naltrexol level, Adult Brain: 260 ng/g
  6β-naltrexol level, Adult Liver: 3570 ng/g
  6β-naltrexol level, Plasma: 2060 ng/g
[4]; [6]
  6β-naltrexol level, Adult Brain: 310 ng/g
  6β-naltrexol level, Adult Liver: 3200 ng/g
  6β-naltrexol level, Plasma: 930 ng/g
[4]; [7]
  6β-naltrexol level, Adult Brain: 230 ng/g
  6β-naltrexol level, Adult Liver: 530 ng/g
  6β-naltrexol level, Plasma: 90 ng/g
[4]; [8]
  6β-naltrexol level, Adult Brain: 110 ng/g
  6β-naltrexol level, Adult Liver: 280 ng/g
  6β-naltrexol level, Plasma: 40 ng/g
[4]; at peak, 10 mg/kg subcutaneously
  embryonic brain levels higher than in adult brain, at peak: ~9 fold
[4]; 45 min survival
  6β-naltrexol level, Embryo Brain: 2780 ng/g
  6β-naltrexol level, Embryo Liver: 4400 ng/g
[4]; 2 hrs survival
  6β-naltrexol level, Embryo Brain: 1370 ng/g
  6β-naltrexol level, Embryo Liver: 1040 ng/g
[4]; 4 hrs survival
  6β-naltrexol level, Embryo Brain: 210 ng/g
  6β-naltrexol level, Embryo Liver: 250 ng/g
[4]; non-compartmental, 0 to 240 min
  AUC for embryonic brain greater than that of adult brain: 6 fold
[4]; [9]
  area under the curve (AUC), (maternal) plasma: 83+6×10^3 ng/ml-min
  area under the curve (AUC), adult brain: 49+2×10^3 ng/ml-min
  area under the curve (AUC), adult liver: 274+36×10^3 ng/ml-min
  area under the curve (AUC), embryonic (fetal) brain: 302+60×10^3 ng/ml-min
  area under the curve (AUC), embryonic liver: 373+84
